The test addresses hGPR40 (Homo sapiens, UniProt O14842). The test is described as follows: FDSS-based intracellular calcium assay. In kind it is cell-based. Also noted: 3xFLAG; expressed in transfected cells. The following applies: intracellular Ca2+ response, cells expressing GPR40. As for the experimental part:
FDSS-Based Intracellular Calcium Assay
Compounds are dissolved in DMSO and diluted to desired concentrations with assay buffer and added to the cells as 3× solution (20 μL per well). Run fluorescence/luminescence reader FDSS (Hamamatsu) to read intracellular Ca^2+ response.

pEC50: −log10 of the molar value.

In general, pEC50 refers to −log10 of the EC50, conventionally taken in molar units.

hGPR40, sequence (O14842 whole entry): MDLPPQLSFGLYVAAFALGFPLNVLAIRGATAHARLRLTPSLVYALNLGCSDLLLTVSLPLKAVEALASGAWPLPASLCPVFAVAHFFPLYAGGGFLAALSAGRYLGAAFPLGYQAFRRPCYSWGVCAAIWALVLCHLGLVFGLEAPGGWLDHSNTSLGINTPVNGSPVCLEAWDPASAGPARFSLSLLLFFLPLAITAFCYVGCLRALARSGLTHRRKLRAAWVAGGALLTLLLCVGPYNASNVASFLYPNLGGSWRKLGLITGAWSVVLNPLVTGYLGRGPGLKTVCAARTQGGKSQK

In the case of `C[C@@H]1C(C(F)(F)F)=NN(c2ccc(OC3CCN(c4cccc(Cl)c4)CC3)cc2)[C@H]1CC(=O)O` [Example 50, 2-((4S,5S)-1-(4-((1-(3-Chlorophenyl)piperidin-4-yl)oxy)phenyl)-4-methyl-3-(trifluoromethyl)-4,5-dihydro-1H-pyrazol-5-yl)acetic acid], the pEC50 was 5.55.
Consider `C[C@@H]1C(C(F)(F)F)=NN(c2ccc(OC3CCN(c4cccc(F)c4)CC3)cc2)[C@H]1CC(=O)O` [Example 48, 2-((4S,5S)-1-(4-((1-(3-Fluorophenyl)piperidin-4-yl)oxy)phenyl)-4-methyl-3-(trifluoromethyl)-4,5-dihydro-1H-pyrazol-5-yl)acetic acid], for which the negative logarithm of the EC50 (pEC50) is 5.64.
Then `COc1cccc(F)c1N1CCC(Oc2ccc(N3N=C(C(F)(F)F)[C@@H](C)[C@@H]3CC(=O)O)cc2)CC1` [Example 54, 2-((4S,5S)-1-(4-((1-(2-Fluoro-6-methoxyphenyl)piperidin-4-yl)oxy)phenyl)-4-methyl-3-(trifluoromethyl)-4,5-dihydro-1H-pyrazol-5-yl)acetic acid], with 5.23.
Turning to `COc1ccc(F)c(N2CCC(Oc3ccc(N4N=C(c5ccc(C#N)cc5)[C@@H](C)[C@@H]4CC(=O)O)cc3)CC2)c1` [Example 91, 2-((4S,5S)-3-(4-Cyanophenyl)-1-(4-((1-(2-fluoro-5-methoxyphenyl)piperidin-4-yl)oxy)phenyl)-4-methyl-4,5-dihydro-1H-pyrazol-5-yl)acetic acid], the negative-log EC50 (pEC50) was 7.21.
Regarding `COc1ccc(F)c(N2CCC(Oc3ccc(N4N=C(C(F)(F)F)[C@@H](C)[C@@H]4CC(=O)O)cc3)C(F)C2)c1` (single isomer, unassigned) [Example 57 (Isomer 3)], the negative-log EC50 (pEC50) is 6.15.
Turning to `COc1ccc(F)c(N2CCC(Oc3ccc(N4N=C(c5ncccn5)C(C)C4CC(=O)O)cc3)CC2)c1` (single isomer, unassigned) [Example 22, Isomer 2, 2-(1-(4-((1-(2-Fluoro-5-methoxyphenyl)piperidin-4-yl)oxy)phenyl)-4-methyl-3-(pyrimidin-2-yl)-4,5-dihydro-1H-pyrazol-5-yl)acetic acid], the negative-log EC50 (pEC50) is 5.25.
Regarding `C[C@@H]1C(C(F)(F)F)=NN(c2ccc(OC3CCN(c4ncccc4Cl)CC3)cc2)[C@H]1CC(=O)O` [Example 58, 2-((4S,5S)-1-(4-((1-(3-Chloropyridin-2-yl)piperidin-4-yl)oxy)phenyl)-4-methyl-3-(trifluoromethyl)-4,5-dihydro-1H-pyrazol-5-yl)acetic acid], the pEC50 is 6.53.
For `CC(C)c1cccc(N2CCC(Oc3ccc(N4N=C(C(F)(F)F)[C@@H](C)[C@@H]4CC(=O)O)cc3)CC2)c1` [Example 73, 2-((4S,5S)-1-(4-((1-(3-Isopropylphenyl)piperidin-4-yl)oxy)phenyl)-4-methyl-3-(trifluoromethyl)-4,5-dihydro-1H-pyrazol-5-yl)acetic acid], the pEC50 was 5.67.
Then `C[C@@H]1C(C(F)(F)F)=NN(c2ccc(OC3CCN(c4ccc(Cl)cc4F)CC3)cc2)[C@H]1CC(=O)O` [Example 63, 2-((4S,5S)-1-(4-((1-(4-Chloro-2-fluorophenyl)piperidin-4-yl)oxy)phenyl)-4-methyl-3-(trifluoromethyl)-4,5-dihydro-1H-pyrazol-5-yl)acetic acid], with 6.40; and `C[C@@H]1C(C(F)(F)F)=NN(c2ccc(OC3CCN(c4cc(F)ccc4F)CC3)cc2)[C@H]1CC(=O)O` [Example 38, 2-((4S,5S)-1-(4-((1-(2,5-Difluorophenyl)piperidin-4-yl)oxy)phenyl)-4-methyl-3-(trifluoromethyl)-4,5-dihydro-1H-pyrazol-5-yl)acetic acid], with 6.32; and `C[C@@H]1C(C(F)(F)F)=NN(c2ccc(OC3CCN(c4cc(Cl)ccc4F)CC3)cc2)[C@H]1CC(=O)O` [Example 64, 2-((4S,5S)-1-(4-((1-(5-Chloro-2-fluorophenyl)piperidin-4-yl)oxy)phenyl)-4-methyl-3-(trifluoromethyl)-4,5-dihydro-1H-pyrazol-5-yl)acetic acid], with 6.29.
The value for `COC(=O)c1ccc(C2=NN(c3ccc(OC4CCN(c5cc(OC)ccc5F)CC4)cc3)[C@@H](CC(=O)O)[C@@H]2C)cc1` [Example 92, 2-((4S,5S)-1-(4-((1-(2-Fluoro-5-methoxyphenyl)piperidin-4-yl)oxy)phenyl)-3-(4-(methoxycarbonyl)phenyl)-4-methyl-4,5-dihydro-1H-pyrazol-5-yl)acetic acid] was 6.86; that for `COc1ccc(N2CCC(Oc3ccc(N4N=C(C(F)(F)F)[C@@H](C)[C@@H]4CC(=O)O)cc3)CC2)cc1F` [Example 52, 2-((4S,5S)-1-(4-((1-(3-Fluoro-4-methoxyphenyl)piperidin-4-yl)oxy)phenyl)-4-methyl-3-(trifluoromethyl)-4,5-dihydro-1H-pyrazol-5-yl)acetic acid] was 5.44; that for `COc1cc(N2CC[C@@H](Oc3ccc(N4N=C(C(F)(F)F)[C@@H](C)[C@@H]4CC(=O)O)c(Br)c3)[C@H](C)C2)c(Cl)cn1` [Example A3, 2-((4S,5S)-1-(2-Bromo-4-(((3R,4R)-1-(5-chloro-2-methoxypyridin-4-yl)-3-methylpiperidin-4-yl)oxy)phenyl)-4-methyl-3-(trifluoromethyl)-4,5-dihydro-1H-pyrazol-5-yl)acetic acid] was 6.07.
Turning to `COc1ccc(F)c(N2CCC(Oc3ccc(N4N=C(C(F)(F)F)[C@@H](CC5CC5)[C@@H]4CC(=O)O)cc3)CC2)c1` (single isomer, unassigned) [Example 90, Isomer 1], the negative-log EC50 (pEC50) was 5.79.
On to `COc1cc(N2CC[C@@H](Oc3ccc(N4N=C(C(F)(F)F)[C@@H](C)[C@@H]4CC(=O)O)cc3Br)[C@H](C)C2)c(Cl)cn1` [Example A4, 2-((4S,5S)-1-(3-Bromo-4-(((3R,4R)-1-(5-chloro-2-methoxypyridin-4-yl)-3-methylpiperidin-4-yl)oxy)phenyl)-4-methyl-3-(trifluoromethyl)-4,5-dihydro-1H-pyrazol-5-yl)acetic acid], for which the pEC50 is 7.35.
Then `COc1cc(N2CCC(Oc3ccc(N4N=C(C(F)(F)F)[C@@H](C)[C@@H]4CC(=O)O)cc3)C(F)C2)c(Cl)cn1` (single isomer, unassigned) [Example A1, Isomer 1], with 6.74; and `COc1cc(F)c(F)c(N2CCC(Oc3ccc(N4N=C(C(F)(F)F)[C@@H](C)[C@@H]4CC(=O)O)cc3)C(C)C2)c1` (single isomer, unassigned) [Example 8 (Isomer 1)], with 6.10.
For `COc1ccc(C)c(N2CCC(Oc3ccc(N4N=C(C(F)(F)F)[C@@H](C)[C@@H]4CC(=O)O)cc3)CC2)c1` [Example A2, 2-((4S,5S)-1-(4-(1-(5-Methoxy-2-methylphenyl)piperidin-4-yloxy)phenyl)-4-methyl-3-(trifluoromethyl)-4,5-dihydro-1H-pyrazol-5-yl)acetic acid], the pEC50 was 6.79.
The value for `COc1cc(N2CCC(Oc3ccc(N4N=C(C(F)(F)F)[C@@H](C)[C@@H]4CC(=O)O)cc3)C(C)C2)c(Cl)cn1` (stereo partly drawn) [Example 81, Isomer 2, 2-((4S,5S)-1-(4-((1-(5-Chloro-2-methoxypyridin-4-yl)-3-methylpiperidin-4-yl)oxy)phenyl)-4-methyl-3-(trifluoromethyl)-4,5-dihydro-1H-pyrazol-5-yl)acetic acid] was 7.15; that for `C[C@@H]1C(C(F)(F)F)=NN(c2ccc(OC3CCN(c4ccccc4)CC3)cc2)[C@H]1CC(=O)O` [Example 72, 2-((4S,5S)-4-Methyl-1-(4-((1-phenylpiperidin-4-yl)oxy)phenyl)-3-(trifluoromethyl)-4,5-dihydro-1H-pyrazol-5-yl)acetic acid] was 5.71; that for `CCOc1cc(N2CC[C@H](Oc3ccc(N4N=C(C(F)(F)F)[C@@H](C)[C@@H]4CC(=O)O)cc3)[C@@H](C)C2)c(F)cn1` [Example 84, 2-((4S,5S)-1-(4-(((3S,4S)-1-(2-Ethoxy-5-fluoropyridin-4-yl)-3-methylpiperidin-4-yl)oxy)phenyl)-4-methyl-3-(trifluoromethyl)-4,5-dihydro-1H-pyrazol-5-yl)acetic acid] was 5.59.
In the case of `COc1ccccc1N1CCC(Oc2ccc(N3N=C(C(F)(F)F)[C@@H](C)[C@@H]3CC(=O)O)cc2)CC1` [Example 46, 2-((4S,5S)-1-(4-((1-(2-Methoxyphenyl)piperidin-4-yl)oxy)phenyl)-4-methyl-3-(trifluoromethyl)-4,5-dihydro-1H-pyrazol-5-yl)acetic acid], the negative logarithm of the EC50 (pEC50) was 5.77.
Regarding `COc1ccc(F)c(N2CCC(Oc3ccc(N4N=C(C(F)(F)F)[C@@H](CC(C)C)[C@@H]4CC(=O)O)cc3)CC2)c1` (single isomer, unassigned) [Example 89, Isomer 2], the pEC50 is 6.41.
For the molecule `COc1ccc(F)c(N2CCC(Oc3ccc(N4N=C(C(F)(F)F)[C@@H](CC5CC5)[C@@H]4CC(=O)O)cc3)CC2)c1` (single isomer, unassigned) [Example 90, Isomer 2], the negative logarithm of the EC50 (pEC50) was 6.81.
Regarding `CCOc1ccc(F)c(N2CCC(Oc3ccc(N4N=C(C(F)(F)F)[C@@H](C)[C@@H]4CC(=O)O)cc3)C(C(C)C)C2)c1` (single isomer, unassigned) [Example 26 (Isomer 2)], the negative-log EC50 (pEC50) is 7.09.
Regarding `Cc1cccc(F)c1N1CCC(Oc2ccc(N3N=C(C(F)(F)F)[C@@H](C)[C@@H]3CC(=O)O)cc2)CC1` [Example 42, 2-((4S,5S)-1-(4-((1-(2-Fluoro-6-methylphenyl)piperidin-4-yl)oxy)phenyl)-4-methyl-3-(trifluoromethyl)-4,5-dihydro-1H-pyrazol-5-yl)acetic acid], the negative-log EC50 (pEC50) was 6.10.
As to `COc1ccc(Cl)c(N2CCC(Oc3ccc(N4N=C(C(F)(F)F)[C@@H](C)[C@@H]4CC(=O)O)cc3)CC2)n1` [Example 76, 2-((4S,5S)-1-(4-((1-(3-Chloro-6-methoxypyridin-2-yl)piperidin-4-yl)oxy)phenyl)-4-methyl-3-(trifluoromethyl)-4,5-dihydro-1H-pyrazol-5-yl)acetic acid], the negative logarithm of the EC50 (pEC50) was 6.19.

Source of the values: patent publication US9133163B2, “Dihydropyrazole GPR40 modulators” (Bristol-Myers Squibb Company, priority 2012, dated 2015).
